Data taken from patent US20260224680A1, “COMPOSITIONS FOR INDUCING OR RESCUING GLYCOLYSIS AND METHODS OF USE THEREOF” (Arizona Board of Regents on behalf of Arizona State …, priority 2023, published 2026).

What was measured:
B16F10 tumors = experiment: B16F10 melanoma model, adoptive transfer of Vacc DCs with PFK15; assay type: in vivo, mouse; settings: day 16; vs no treatment control
Description: To test the versatility of the F16BP-PFK15 system, another aggressive B16F10 melanoma model was chosen (FIG. 4A). In this model, DCs were loaded with F16BP MPs intercalated with mRNA isolated from B16F10 cancer cells, and poly(IC) (Vacc DCs) and adoptively transferred in mice containing B16F10 tumors. This cellular therapy's ability to modulate adaptive immune responses, reduced tumor growth, and improve survival were measured.
To test if the metabolic rescue in DCs can be applied to adoptive cell therapy, adoptive transfer of DC-vaccines was tested in mice (FIG. 16). […] Specifically, 0.75×10^6 B16F10 cells were injected in C57BL/6j immunocompetent mice, and PFK15 was injected every alternate day for the duration of the study (FIG. 16). Moreover, ex vivo DCs loaded with F16BP(mRNA+poly(IC)) (Vacc DCs) or DCs loaded with F16BP MPs were adoptively transferred using retro-orbital injections (RO) on days 6 and 19 (FIG. 15).
To test if the Vacc DCs could modulate the immune responses after their administration, on day 16, spleen, lymph nodes, and tumors were isolated from different conditions and stained for the activation profile of DCs, and T cells. […]
Since Vacc DCs are administered systemically, spleen and cervical lymph nodes were also analysed for the changes in innate and adaptive immune responses (FIG. 19 through FIG. 22).

YUMM1.1 cancer cells = experiment: Proliferation assay using MTT, YUMM1.1; assay type: cell-based, mouse; settings: in vitro
DCs [1] = experiment: DC activation by flow cytometry in vitro; assay type: cell-based, mouse; settings: in the presence of poly(IC); PFK15 conc.=25 μM
Excerpt: (§1) Data represented as mean±std error.
To test if F16BP MPs can modulate the function of DCs, mRNA-based and peptide-based vaccine F16BP MPs were formulated. These vaccines were generated by intercalating di-phosphorylated melanoma peptide antigen Tyrosine related protein 2 (pTRP2), and poly(IC) and mRNA derived from melanoma cells, which contain several phosphate groups in their backbone (FIG. 12). Since pTRP2p, and poly(IC) have phosphate groups, these molecules can be incorporated into the F16BP MPs using the calcium-phosphate chemistry. The amount of pTRp2, and poly(IC) incorporated within the F16BP MPs was determined to be 78±3.4, and 50.9±7.9 μg, respectively. Next, F16BP MPs intercalated with poly(IC) and pTRP2 were incubated with DCs overnight, and flow cytometry was utilized to test if these particles could activate DCs (FIG. 2I and FIG. 2J).

DCs [2] = experiment: Extracellular flux assays on DCs in vitro (ECAR, respiration); assay type: cell-based, mouse
Description: as §1
Next, the ability of the F16BP MPs to rescue glycolysis in DCs in the presence of glycolytic inhibitor PFK15 was evaluated using extracellular flux assays. DCs were cultured with either PFK15, F16BP MPs, soluble fructose-6-phosphate (F6P—upstream of PFKFB3) or PFK15+F16BP MPs, or individual components of the F16BP MPs for 2 hr, and extracellular acidification rate (ECAR—rate of glycolysis) measurements were obtained. […] This is important since under conditions of inflammation, DCs need to perform enhanced levels of glycolysis to support the inflammatory protein production.

B16F10 cancer cells = experiment: Proliferation assay using MTT, B16F10; assay type: cell-based, mouse; settings: in vitro
[3] = DCs cultured 2 hr, vs no treatment control

## O=C(/C=C/c1ccc2ccccc2n1)c1ccncc1 [PFK15]
B16F10 tumors
  total number of CD8+ T cells in the tumor: significantly decreased
YUMM1.1 cancer cells
  proliferation of YUMM1.1 cancer cells: effective in preventing proliferation
DCs [1]
  activation of DCs (CD80+CD86+ in CD11c+): able to decrease
DCs [2]; [3]
  glycolysis (ECAR): lower than no treatment control
  glycolytic capacity (ECAR): lower than no treatment control
DCs [2]; in the presence of poly(IC)
  glycolysis (ECAR): decreased
  glycolytic capacity (ECAR): decreased
B16F10 cancer cells
  proliferation of B16F10 cancer cells: effective in preventing proliferation
